Where two headings read alike, the source gives them in different places.
What was measured:
[1] = molecular target: T1, Aiolos (Homo sapiens, UniProt Q96SW2+Q9UKT9); assay: Aiolos degradation, ePL luminescence assay in DF15 cells expressing ePL-tagged Aiolos; assay type: cell-based; conditions: for DC50: read-out: Degradation of Aiolos IC50, DF15 cells
T1 construct: expressed in transfected cells; host or cells: DF15 multiple myeloma cells
Description: FIG. 1 illustrates that Compound 2 and Compound 3 degraded Aiolos protein in a time and concentration dependent manner. DF15 cells expressing Enhanced ProLabel (ePL)-tagged Aiolos were incubated with Compound 2 (triangle) or Compound 3 (square) for 45 minutes, 90 minutes, or 3 hours at the indicated concentrations. Cell extracts were then generated and the amount of Aiolos-ePL protein was determined by ePL luminescence assay.
The relative effectiveness of Compound 2 and Compound 3 to promote the destruction of Aiolos protein by the CRL4^CRBN E3 ubiquitin ligase was investigated in DF15 myeloma cells at different time points (45 minutes, 90 minutes, and 3 hours). DF15 cells expressing Enhanced ProLabel (ePL)-tagged Aiolos were incubated with Compound 2 or Compound 3 for 45 minutes, 90 minutes, or 3 hours. Cell extracts were then generated and the amount of Aiolos ePL protein was determined by ePL luminescence assay. Values shown in Table 1 correspond to data presented in FIG. 1 for Aiolos content vs. concentration.

[2] = test system: OPM2 cells; assay: cells; assay type: cell-based, human; conditions: Homo sapiens, read-out: Inhibition of Proliferation of OPM2 Cells IC50
Description: The effect of the stabilizing mutations on cell proliferation was also measured.

T1 sequence (Q9UKT9 whole entry): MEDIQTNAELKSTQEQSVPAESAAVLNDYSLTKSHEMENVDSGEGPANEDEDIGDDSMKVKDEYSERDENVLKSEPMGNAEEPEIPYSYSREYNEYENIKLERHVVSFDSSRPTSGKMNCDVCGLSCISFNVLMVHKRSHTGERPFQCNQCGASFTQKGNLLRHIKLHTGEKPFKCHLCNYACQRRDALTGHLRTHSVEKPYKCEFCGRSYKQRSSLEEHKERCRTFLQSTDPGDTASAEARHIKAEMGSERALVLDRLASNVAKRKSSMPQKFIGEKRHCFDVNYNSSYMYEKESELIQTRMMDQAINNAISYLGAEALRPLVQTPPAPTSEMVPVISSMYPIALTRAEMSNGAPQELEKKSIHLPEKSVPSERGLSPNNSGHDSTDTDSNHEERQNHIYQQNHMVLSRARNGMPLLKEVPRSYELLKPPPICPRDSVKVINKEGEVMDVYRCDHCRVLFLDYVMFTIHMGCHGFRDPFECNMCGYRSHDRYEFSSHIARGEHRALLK
T1 sequence (Q96SW2 whole entry): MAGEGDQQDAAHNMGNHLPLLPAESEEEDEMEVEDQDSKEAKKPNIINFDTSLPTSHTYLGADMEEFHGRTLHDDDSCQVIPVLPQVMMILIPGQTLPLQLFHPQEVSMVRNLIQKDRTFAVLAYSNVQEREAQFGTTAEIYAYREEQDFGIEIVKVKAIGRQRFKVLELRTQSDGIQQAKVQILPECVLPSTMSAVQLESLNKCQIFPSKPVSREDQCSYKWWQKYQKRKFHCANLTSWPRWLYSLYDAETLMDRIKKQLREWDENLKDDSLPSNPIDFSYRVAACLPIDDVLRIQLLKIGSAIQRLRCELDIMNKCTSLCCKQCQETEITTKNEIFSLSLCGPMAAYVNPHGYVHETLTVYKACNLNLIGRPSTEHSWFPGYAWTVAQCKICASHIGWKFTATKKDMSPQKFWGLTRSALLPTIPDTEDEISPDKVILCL
T1 sequence (Q16531 2-1140, further chain): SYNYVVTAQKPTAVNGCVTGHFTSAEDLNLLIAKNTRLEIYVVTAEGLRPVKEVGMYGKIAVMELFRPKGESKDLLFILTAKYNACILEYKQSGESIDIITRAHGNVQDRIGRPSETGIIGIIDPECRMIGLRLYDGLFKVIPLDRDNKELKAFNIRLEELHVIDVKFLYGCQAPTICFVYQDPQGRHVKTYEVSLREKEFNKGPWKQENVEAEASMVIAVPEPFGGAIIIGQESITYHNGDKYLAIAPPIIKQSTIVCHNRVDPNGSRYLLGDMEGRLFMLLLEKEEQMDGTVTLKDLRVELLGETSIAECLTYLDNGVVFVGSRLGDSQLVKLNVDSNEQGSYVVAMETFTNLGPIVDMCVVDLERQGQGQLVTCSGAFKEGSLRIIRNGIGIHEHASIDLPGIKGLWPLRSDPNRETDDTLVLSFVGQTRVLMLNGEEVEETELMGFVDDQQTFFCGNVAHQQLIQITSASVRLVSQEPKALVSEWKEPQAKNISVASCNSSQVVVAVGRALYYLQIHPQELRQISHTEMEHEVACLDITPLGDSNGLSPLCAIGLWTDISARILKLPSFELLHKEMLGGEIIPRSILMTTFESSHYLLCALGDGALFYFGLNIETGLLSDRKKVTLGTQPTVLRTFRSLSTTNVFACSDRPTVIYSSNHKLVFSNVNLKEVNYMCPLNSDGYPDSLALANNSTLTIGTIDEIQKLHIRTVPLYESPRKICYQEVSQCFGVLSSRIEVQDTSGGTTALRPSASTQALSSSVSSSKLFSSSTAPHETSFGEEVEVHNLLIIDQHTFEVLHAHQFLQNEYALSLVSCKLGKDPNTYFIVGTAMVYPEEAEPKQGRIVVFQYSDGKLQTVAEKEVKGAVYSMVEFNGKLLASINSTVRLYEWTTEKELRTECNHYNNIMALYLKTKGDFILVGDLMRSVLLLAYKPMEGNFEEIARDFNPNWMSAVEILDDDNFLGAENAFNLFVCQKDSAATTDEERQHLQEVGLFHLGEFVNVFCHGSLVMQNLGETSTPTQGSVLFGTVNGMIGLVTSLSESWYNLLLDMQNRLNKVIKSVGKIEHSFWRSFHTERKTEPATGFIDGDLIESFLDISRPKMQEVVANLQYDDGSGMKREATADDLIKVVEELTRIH

| Structure (SMILES) | manner of Aiolos degradation ([1]; 45 minutes, 90 minutes, 3 hours) | inhibition at 0.001 µM ([1]; DF15, read-out: inhibition at 0.001 μM) [%] | DC50 ([1]; 45 minutes incubation) [nM] | DC50 ([1]; 90 minutes incubation) [nM] | DC50 ([1]; 3 hours incubation) [nM] | IC50 ([2]; OPM-2, Parental) [nM] | IC50 ([2]; OPM-2, overexpressing Aiolos Q147H) [nM] | IC50 ([2]; OPM-2, overexpressing Aiolos) [nM] | IC50 ([2]; OPM-2, overexpressing Ikaros-G151A) [nM] | IC50 ([2]; OPM-2, overexpressing Ikaros-Q146H) [nM] | IC50 ([2]; OPM-2, overexpressing Ikaros) [nM] | IC50 ([2]; OPM-2, overexpressing ZFP91-Q400H) [nM] |
| --- | --- | --- | --- | --- | --- | --- | --- | --- | --- | --- | --- | --- |
| N#Cc1ccc(N2CCN(Cc3ccc(COc4cccc5c4CN([C@@H]4CCC(=O)NC4=O)C5=O)cc3)CC2)c(F)c1 [Compound 3, (R)-4-(4-(4-(((2-(2,6-dioxopiperidin-3-yl)-1-oxoisoindolin-4-yl)oxy)methyl)benzyl)piperazin-1-yl)-3-fluorobenzonitrile] | time-dependent and concentration-dependent | 13 | > 100 | 5.9 | 0.45 | – | – | – | – | – | – | – |
| Nc1cccc2c1C(=O)N(C1CCC(=O)NC1=O)C2=O (stereo not drawn) [Pomalidomide, pomalidomide, reference compound] | – | – | – | – | – | 64 | 56 | 89 | > 100 | > 100 | 91 | 73 |
